In PubChem BioAssay (NCI):
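These data come from cells grown in 96-well plates and exposed to compound for 48 hours at five concentrations. TGI: total growth inhibition.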

Assays:
Assay in all cases: NCI anticancer screen, dose series, 48 h
786-0 renal = tested on: 786-0 renal
A498 renal = tested on: A498 renal
A549 NSCLC = tested on: A549 NSCLC
ACHN renal = tested on: ACHN renal
BT-549 breast = tested on: BT-549 breast
CAKI-1 renal = tested on: CAKI-1 renal
CCRF-CEM leukemia = tested on: CCRF-CEM leukemia
COLO 205 colon = tested on: COLO 205 colon
DU-145 prostate = tested on: DU-145 prostate
EKVX NSCLC = tested on: EKVX NSCLC
HCC-2998 colon = tested on: HCC-2998 colon
HCT-116 colon = tested on: HCT-116 colon
HCT-15 colon = tested on: HCT-15 colon
HL-60(TB) leukemia = tested on: HL-60(TB) leukemia
HOP-62 NSCLC = tested on: HOP-62 NSCLC
HOP-92 NSCLC = tested on: HOP-92 NSCLC
HS 578T breast = tested on: HS 578T breast
HT29 colon = tested on: HT29 colon
IGROV1 ovarian = tested on: IGROV1 ovarian
K-562 leukemia = tested on: K-562 leukemia
KM12 colon = tested on: KM12 colon
LOX IMVI melanoma = tested on: LOX IMVI melanoma
M14 melanoma = tested on: M14 melanoma
MALME-3M melanoma = tested on: MALME-3M melanoma
MCF7 breast = tested on: MCF7 breast
MDA-MB-231 breast = tested on: MDA-MB-231 breast
MDA-MB-435 = tested on: MDA-MB-435
MDA-N = tested on: MDA-N
MOLT-4 leukemia = tested on: MOLT-4 leukemia
NCI-H226 lung = tested on: NCI-H226 lung
NCI-H23 lung = tested on: NCI-H23 lung
NCI-H460 lung = tested on: NCI-H460 lung
NCI-H522 lung = tested on: NCI-H522 lung
NCI/ADR-RES ovarian = tested on: NCI/ADR-RES ovarian
OVCAR-3 ovarian = tested on: OVCAR-3 ovarian
OVCAR-4 ovarian = tested on: OVCAR-4 ovarian
OVCAR-5 ovarian = tested on: OVCAR-5 ovarian
OVCAR-8 ovarian = tested on: OVCAR-8 ovarian
PC-3 prostate = tested on: PC-3 prostate
RPMI-8226 leukemia = tested on: RPMI-8226 leukemia
RXF 393 renal = tested on: RXF 393 renal
SF-268 CNS = tested on: SF-268 CNS
SF-295 CNS = tested on: SF-295 CNS
SF-539 CNS = tested on: SF-539 CNS
SK-MEL-2 melanoma = tested on: SK-MEL-2 melanoma
SK-MEL-28 melanoma = tested on: SK-MEL-28 melanoma
SK-MEL-5 melanoma = tested on: SK-MEL-5 melanoma
SK-OV-3 ovarian = tested on: SK-OV-3 ovarian
SN12C renal = tested on: SN12C renal
SNB-19 CNS = tested on: SNB-19 CNS
SNB-75 CNS = tested on: SNB-75 CNS
SW-620 colon = tested on: SW-620 colon
T-47D breast = tested on: T-47D breast
TK-10 renal = tested on: TK-10 renal
U251 CNS = tested on: U251 CNS
UACC-257 melanoma = tested on: UACC-257 melanoma
UACC-62 melanoma = tested on: UACC-62 melanoma
UO-31 renal = tested on: UO-31 renal

Oc1cccc2cc(Cl)cnc12
TGI (786-0 renal): > 100 µM | TGI (A498 renal): > 77.5 µM | TGI (A549 NSCLC): > 100 µM | TGI (ACHN renal): > 100 µM | TGI (BT-549 breast): > 100 µM | TGI (CAKI-1 renal): > 100 µM | TGI (CCRF-CEM leukemia): 15.5 µM | TGI (COLO 205 colon): > 100 µM | TGI (DU-145 prostate): > 100 µM | TGI (EKVX NSCLC): 98.9 µM | TGI (HCC-2998 colon): > 88.4 µM | TGI (HCT-116 colon): 37.8 µM | TGI (HCT-15 colon): > 100 µM | TGI (HL-60(TB) leukemia): 6.27 µM | TGI (HOP-62 NSCLC): > 100 µM | TGI (HOP-92 NSCLC): > 100 µM | TGI (HS 578T breast): > 83.5 µM | TGI (HT29 colon): > 69.2 µM | TGI (IGROV1 ovarian): > 83.4 µM | TGI (K-562 leukemia): 38.3 µM | TGI (KM12 colon): > 100 µM | TGI (LOX IMVI melanoma): > 64.1 µM | TGI (M14 melanoma): > 100 µM | TGI (MALME-3M melanoma): > 100 µM | TGI (MCF7 breast): > 100 µM | TGI (MDA-MB-231 breast): > 100 µM | TGI (MDA-MB-435): > 100 µM | TGI (MDA-N): > 100 µM | TGI (MOLT-4 leukemia): 27.4 µM | TGI (NCI-H226 lung): 97.5 µM | TGI (NCI-H23 lung): > 100 µM | TGI (NCI-H460 lung): > 100 µM | TGI (NCI-H522 lung): 22 µM | TGI (NCI/ADR-RES ovarian): 30.3 µM | TGI (OVCAR-3 ovarian): > 31.1 µM | TGI (OVCAR-4 ovarian): > 90.6 µM | TGI (OVCAR-5 ovarian): > 100 µM | TGI (OVCAR-8 ovarian): > 100 µM | TGI (PC-3 prostate): > 100 µM | TGI (RPMI-8226 leukemia): 61.6 µM | TGI (RXF 393 renal): > 79.6 µM | TGI (SF-268 CNS): > 100 µM | TGI (SF-295 CNS): > 100 µM | TGI (SF-539 CNS): 99 µM | TGI (SK-MEL-2 melanoma): > 100 µM | TGI (SK-MEL-28 melanoma): > 100 µM | TGI (SK-MEL-5 melanoma): 99.1 µM | TGI (SK-OV-3 ovarian): > 100 µM | TGI (SN12C renal): > 100 µM | TGI (SNB-19 CNS): > 100 µM | TGI (SNB-75 CNS): > 100 µM | TGI (SW-620 colon): > 100 µM | TGI (T-47D breast): > 68.5 µM | TGI (TK-10 renal): > 100 µM | TGI (U251 CNS): > 100 µM | TGI (UACC-257 melanoma): 81.7 µM | TGI (UACC-62 melanoma): > 44.7 µM | TGI (UO-31 renal): > 100 µM

CCOC(=O)C(C)(C)Oc1ccc(Cl)cc1
TGI (786-0 renal): > 1000 µM | TGI (A498 renal): > 1000 µM | TGI (A549 NSCLC): > 1000 µM | TGI (ACHN renal): > 1000 µM | TGI (BT-549 breast): > 1000 µM | TGI (CAKI-1 renal): > 1000 µM | TGI (CCRF-CEM leukemia): > 1000 µM | TGI (COLO 205 colon): 459 µM | TGI (DU-145 prostate): > 1000 µM | TGI (EKVX NSCLC): > 1000 µM | TGI (HCC-2998 colon): > 1000 µM | TGI (HCT-116 colon): > 1000 µM | TGI (HCT-15 colon): > 1000 µM | TGI (HL-60(TB) leukemia): > 1000 µM | TGI (HOP-62 NSCLC): > 1000 µM | TGI (HOP-92 NSCLC): 650 µM | TGI (HS 578T breast): > 1000 µM | TGI (HT29 colon): 325 µM | TGI (IGROV1 ovarian): > 1000 µM | TGI (K-562 leukemia): > 1000 µM | TGI (KM12 colon): > 1000 µM | TGI (LOX IMVI melanoma): 329 µM | TGI (M14 melanoma): > 1000 µM | TGI (MALME-3M melanoma): > 1000 µM | TGI (MCF7 breast): > 1000 µM | TGI (MDA-MB-231 breast): > 1000 µM | TGI (MDA-MB-435): > 1000 µM | TGI (MDA-N): > 1000 µM | TGI (MOLT-4 leukemia): 591 µM | TGI (NCI-H226 lung): 429 µM | TGI (NCI-H23 lung): > 1000 µM | TGI (NCI-H460 lung): > 1000 µM | TGI (NCI-H522 lung): > 1000 µM | TGI (NCI/ADR-RES ovarian): > 1000 µM | TGI (OVCAR-4 ovarian): > 1000 µM | TGI (OVCAR-5 ovarian): > 1000 µM | TGI (OVCAR-8 ovarian): > 1000 µM | TGI (PC-3 prostate): > 1000 µM | TGI (RXF 393 renal): 433 µM | TGI (SF-268 CNS): > 1000 µM | TGI (SF-295 CNS): > 1000 µM | TGI (SF-539 CNS): > 1000 µM | TGI (SK-MEL-2 melanoma): 392 µM | TGI (SK-MEL-28 melanoma): > 1000 µM | TGI (SK-MEL-5 melanoma): 294 µM | TGI (SK-OV-3 ovarian): > 1000 µM | TGI (SN12C renal): > 1000 µM | TGI (SNB-19 CNS): > 1000 µM | TGI (SNB-75 CNS): > 1000 µM | TGI (SW-620 colon): > 1000 µM | TGI (T-47D breast): 682 µM | TGI (TK-10 renal): > 1000 µM | TGI (U251 CNS): > 1000 µM | TGI (UACC-257 melanoma): 496 µM | TGI (UACC-62 melanoma): > 1000 µM | TGI (UO-31 renal): > 1000 µM
